Assay results reported in PubChem BioAssay AID2060902 (Molecular Pharmacology Branch, DTP, NCI, 2025).

Tested on: 485368-065-R3-J5-PDC spheroids with HUVEC/MSC, viability
Test: Anticancer human tumor 485368-065-R3-J5-PDC patient-derived pancreatic carcinoma cell line growth inhibition [RAS]
Conditions: for IC50: curve of first compound; for viability, T/C: stronger effect = lower value
Outline: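 Multi-cell-type spheroids: tumor cells plus HUVEC endothelial cells and mesenchymal stem cells. RAS-pathway inhibitors were combined with targeted agents, each dosed in half-log steps down from clinical Cmax, or from 10 microM when Cmax was unknown.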
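Also: spheroids exposed to agents for seven days before readout.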

Question: Which results are given for CC(=O)OC12COC1CC(O)C1(C)C(=O)C(O)C3=C(C)C(OC(=O)C(O)C(NC(=O)OC(C)(C)C)c4ccccc4)CC(O)(C(OC(=O)c4ccccc4)C21)C3(C)C (centres undefined) + C=CC(=O)N1CCN(c2nc(OCC3CCCN3C)nc3c(F)c(-c4nc(N)cc(C)c4C(F)(F)F)c(Cl)cc23)C(C)C1?
Answer: IC50 (second compound 0.00316 µM): < 31.6 nM; IC50 (second compound 0.01 µM): < 31.6 nM; IC50 (second compound 0.0316 µM): < 31.6 nM; IC50 (second compound 0.1 µM): < 31.6 nM; IC50 (second compound 0.316 µM): < 31.6 nM; IC50 (second compound 1 µM): < 31.6 nM; viability, T/C (second compound 0.00316 µM, first compound 0.0316 µM): 14.1%; viability, T/C (second compound 0.00316 µM, first compound 0.1 µM): 12.1%; viability, T/C (second compound 0.00316 µM, first compound 0.316 µM): 13.5%; viability, T/C (second compound 0.00316 µM, first compound 1 µM): 12.9%; viability, T/C (second compound 0.00316 µM, first compound 3.16 µM): 13.9%; viability, T/C (second compound 0.00316 µM, first compound 10 µM): 18.2%; viability, T/C (second compound 0.01 µM, first compound 0.0316 µM): 11.4%; viability, T/C (second compound 0.01 µM, first compound 0.1 µM): 10.3%; viability, T/C (second compound 0.01 µM, first compound 0.316 µM): 11.2%; viability, T/C (second compound 0.01 µM, first compound 1 µM): 11.9%; viability, T/C (second compound 0.01 µM, first compound 3.16 µM): 11.9%; viability, T/C (second compound 0.01 µM, first compound 10 µM): 21.3%; viability, T/C (second compound 0.0316 µM, first compound 0.0316 µM): 13.2%; viability, T/C (second compound 0.0316 µM, first compound 0.1 µM): 9.68%; viability, T/C (second compound 0.0316 µM, first compound 0.316 µM): 12.2%; viability, T/C (second compound 0.0316 µM, first compound 1 µM): 16%; viability, T/C (second compound 0.0316 µM, first compound 3.16 µM): 16.2%; viability, T/C (second compound 0.0316 µM, first compound 10 µM): 19.9%; viability, T/C (second compound 0.1 µM, first compound 0.0316 µM): 10.6%; viability, T/C (second compound 0.1 µM, first compound 0.1 µM): 10.8%; viability, T/C (second compound 0.1 µM, first compound 0.316 µM): 13.7%; viability, T/C (second compound 0.1 µM, first compound 1 µM): 10%; viability, T/C (second compound 0.1 µM, first compound 3.16 µM): 17.6%; viability, T/C (second compound 0.1 µM, first compound 10 µM): 20.2%; viability, T/C (second compound 0.316 µM, first compound 0.0316 µM): 9.72%; viability, T/C (second compound 0.316 µM, first compound 0.1 µM): 13.7%; viability, T/C (second compound 0.316 µM, first compound 0.316 µM): 11.7%; viability, T/C (second compound 0.316 µM, first compound 1 µM): 13%; viability, T/C (second compound 0.316 µM, first compound 3.16 µM): 22.9%; viability, T/C (second compound 0.316 µM, first compound 10 µM): 28.2%; viability, T/C (second compound 1 µM, first compound 0.0316 µM): 12.8%; viability, T/C (second compound 1 µM, first compound 0.1 µM): 15.1%; viability, T/C (second compound 1 µM, first compound 0.316 µM): 16.3%; viability, T/C (second compound 1 µM, first compound 1 µM): 12.6%; viability, T/C (second compound 1 µM, first compound 3.16 µM): 17.3%; viability, T/C (second compound 1 µM, first compound 10 µM): 23.5%

Question: CC1(C)CCC(Nc2ncc(C(F)(F)F)c(-c3c[nH]c4c(P(C)(C)=O)c(C#N)ccc34)n2)CN1 (centres undefined) + C=CC(=O)N1CCN(c2nc(OCC3CCCN3C)nc3c(F)c(-c4nc(N)cc(C)c4C(F)(F)F)c(Cl)cc23)C(C)C1 was tested. Which IC50 (second compound 0.00316 µM) did it give?
Answer: 2.36 nM

Question: What about the IC50 (second compound 0.01 µM) of the same molecule?
Answer: 2.61 nM

Question: And the IC50 (second compound 0.0316 µM)?
Answer: 3.73 nM

Question: What about the IC50 (second compound 0.1 µM) of the same molecule?
Answer: 3.95 nM

Question: What about the IC50 (second compound 0.316 µM) of the same molecule?
Answer: 2.89 nM

Question: And the IC50 (second compound 1 µM)?
Answer: 4.02 nM

Question: And the viability, T/C (second compound 0.00316 µM, first compound 0.000949 µM)?
Answer: 92.5%

Question: What about the viability, T/C (second compound 0.00316 µM, first compound 0.003 µM) of the same molecule?
Answer: 39.1%

Question: And the viability, T/C (second compound 0.00316 µM, first compound 0.00949 µM)?
Answer: 26.9%

Question: And the viability, T/C (second compound 0.00316 µM, first compound 0.03 µM)?
Answer: 26.3%

Question: What about the viability, T/C (second compound 0.00316 µM, first compound 0.0949 µM) of the same molecule?
Answer: 30.9%

Question: What about the viability, T/C (second compound 0.00316 µM, first compound 0.3 µM) of the same molecule?
Answer: 27.9%

Question: What about the viability, T/C (second compound 0.01 µM, first compound 0.000949 µM) of the same molecule?
Answer: 87.5%

Question: What about the viability, T/C (second compound 0.01 µM, first compound 0.003 µM) of the same molecule?
Answer: 44.9%

Question: And the viability, T/C (second compound 0.01 µM, first compound 0.00949 µM)?
Answer: 26.5%

Question: And the viability, T/C (second compound 0.01 µM, first compound 0.03 µM)?
Answer: 28.2%

Question: What about the viability, T/C (second compound 0.01 µM, first compound 0.0949 µM) of the same molecule?
Answer: 28.2%

Question: What about the viability, T/C (second compound 0.01 µM, first compound 0.3 µM) of the same molecule?
Answer: 29.1%

Question: And the viability, T/C (second compound 0.0316 µM, first compound 0.000949 µM)?
Answer: 73.6%

Question: What about the viability, T/C (second compound 0.0316 µM, first compound 0.003 µM) of the same molecule?
Answer: 54%

Question: What about the viability, T/C (second compound 0.0316 µM, first compound 0.00949 µM) of the same molecule?
Answer: 32.8%

Question: What about the viability, T/C (second compound 0.0316 µM, first compound 0.03 µM) of the same molecule?
Answer: 30.6%

Question: And the viability, T/C (second compound 0.0316 µM, first compound 0.0949 µM)?
Answer: 30.8%

Question: And the viability, T/C (second compound 0.0316 µM, first compound 0.3 µM)?
Answer: 28.2%

Question: And the viability, T/C (second compound 0.1 µM, first compound 0.000949 µM)?
Answer: 83.5%

Question: And the viability, T/C (second compound 0.1 µM, first compound 0.003 µM)?
Answer: 55.5%

Question: What about the viability, T/C (second compound 0.1 µM, first compound 0.00949 µM) of the same molecule?
Answer: 32.3%

Question: What about the viability, T/C (second compound 0.1 µM, first compound 0.03 µM) of the same molecule?
Answer: 30.9%

Question: And the viability, T/C (second compound 0.1 µM, first compound 0.0949 µM)?
Answer: 30.5%

Question: What about the viability, T/C (second compound 0.1 µM, first compound 0.3 µM) of the same molecule?
Answer: 34.3%

Question: And the viability, T/C (second compound 0.316 µM, first compound 0.000949 µM)?
Answer: 100%

Question: And the viability, T/C (second compound 0.316 µM, first compound 0.003 µM)?
Answer: 48.4%

Question: What about the viability, T/C (second compound 0.316 µM, first compound 0.00949 µM) of the same molecule?
Answer: 32.6%

Question: And the viability, T/C (second compound 0.316 µM, first compound 0.03 µM)?
Answer: 28.4%

Question: What about the viability, T/C (second compound 0.316 µM, first compound 0.0949 µM) of the same molecule?
Answer: 30.6%

Question: What about the viability, T/C (second compound 0.316 µM, first compound 0.3 µM) of the same molecule?
Answer: 27.4%

Question: What about the viability, T/C (second compound 1 µM, first compound 0.000949 µM) of the same molecule?
Answer: 87.1%

Question: And the viability, T/C (second compound 1 µM, first compound 0.003 µM)?
Answer: 55.1%

Question: And the viability, T/C (second compound 1 µM, first compound 0.00949 µM)?
Answer: 35.8%

Question: And the viability, T/C (second compound 1 µM, first compound 0.03 µM)?
Answer: 25.6%

Question: What about the viability, T/C (second compound 1 µM, first compound 0.0949 µM) of the same molecule?
Answer: 32.1%

Question: And the viability, T/C (second compound 1 µM, first compound 0.3 µM)?
Answer: 34.2%
